Data: patent publication US10889620B2, “Solid state forms of linaclotide” (NOVETIDE LTD., priority 2015, dated 2021)
Bridge positions count the residues as written; N and C are the ends. Peptide text beside a SMILES is read from it.

Assays:
[1] = storage for 3 months; 40° C. and 75% relative humidity; from U.S. Pat. No. 8,222,201, Example 3, Table 13; cited from earlier work
[2] = Stability test of solid Linaclotide forms, storage in sealed HDPE bottles at 40° C. and 75% relative humidity, hydrolysis product content; format: physicochemical; conditions: sealed 45 cc. HDPE bottles
Protocol: Linaclotide Form III according to the present invention was subjected to a stability test in accordance with U.S. Pat. No. 8,222,201, Example 3 (storage in sealed 45 cc. high density polyethylene bottles at 40° C. and 75% relative humidity).

[3] = Stability of Linaclotide solutions with and without ethanol, % multimers by HPLC-SEC; format: physicochemical; conditions: RT, sealed vials
Protocol: Solutions of Linaclotide in: (A): a 1:1 mixture of 0.2% AcOH: ACN or (B): a 1:1:9.5 mixture of 0.2% AcOH:ACN:EtOH, were stored for 12 days at room temperature (RT) in sealed vials. The solutions were analysed by (HPLC-size exclusion chromatography) (HPLC-SEC), for % multimers (the major degradants present) content (see table below):
The results are graphically represented in FIG. 6.

C[C@@H]1NC(=O)[C@@H]2CCCN2C(=O)[C@H](CC(N)=O)NC(=O)[C@@H]2CSSC[C@H](N)C(=O)N[C@H]3CSSC[C@H](NC1=O)C(=O)N[C@@H]([C@@H](C)O)C(=O)NCC(=O)N[C@H](C(=O)N[C@@H](Cc1ccc(O)cc1)C(=O)O)CSSC[C@H](NC(=O)[C@H](Cc1ccc(O)cc1)NC(=O)[C@H](CCC(=O)O)NC3=O)C(=O)N2 [Form alpha, Linaclotide] (H-CCEYCCNPACTGCY-OH; disulfide 1-6, 2-10, 5-13)
hydrolysis product (L-Asp Linaclotide impurity) content [1]: 5.7 wt %

C[C@@H]1NC(=O)[C@@H]2CCCN2C(=O)[C@H](CC(N)=O)NC(=O)[C@@H]2CSSC[C@H](N)C(=O)N[C@H]3CSSC[C@H](NC1=O)C(=O)N[C@@H]([C@@H](C)O)C(=O)NCC(=O)N[C@H](C(=O)N[C@@H](Cc1ccc(O)cc1)C(=O)O)CSSC[C@H](NC(=O)[C@H](Cc1ccc(O)cc1)NC(=O)[C@H](CCC(=O)O)NC3=O)C(=O)N2 [Linaclotide Form III, Linaclotide] (H-CCEYCCNPACTGCY-OH; disulfide 1-6, 2-10, 5-13)
Linaclotide hydrolysis product (L-Asp Linaclotide impurity) content ([2]; after 4 weeks): 0.22% | Linaclotide hydrolysis product (L-Asp Linaclotide impurity) content ([2]; extrapolated to 3 months): 0.45 wt %

C[C@@H]1NC(=O)[C@@H]2CCCN2C(=O)[C@H](CC(N)=O)NC(=O)[C@@H]2CSSC[C@H](N)C(=O)N[C@H]3CSSC[C@H](NC1=O)C(=O)N[C@@H]([C@@H](C)O)C(=O)NCC(=O)N[C@H](C(=O)N[C@@H](Cc1ccc(O)cc1)C(=O)O)CSSC[C@H](NC(=O)[C@H](Cc1ccc(O)cc1)NC(=O)[C@H](CCC(=O)O)NC3=O)C(=O)N2 [Linaclotide] (H-CCEYCCNPACTGCY-OH; disulfide 1-6, 2-10, 5-13)
% Multimers according to HPLC-SEC method ([3]; solution (A) without EtOH: 1:1 0.2% AcOH:ACN, Day 0): 1.72% | % Multimers according to HPLC-SEC method ([3]; solution (A) without EtOH: 1:1 0.2% AcOH:ACN, Day 1): 1.87% | % Multimers according to HPLC-SEC method ([3]; solution (A) without EtOH: 1:1 0.2% AcOH:ACN, Day 2): 1.70% | % Multimers according to HPLC-SEC method ([3]; solution (A) without EtOH: 1:1 0.2% AcOH:ACN, Day 5): 3.05% | % Multimers according to HPLC-SEC method ([3]; solution (A) without EtOH: 1:1 0.2% AcOH:ACN, Day 6): 3.75% | % Multimers according to HPLC-SEC method ([3]; solution (A) without EtOH: 1:1 0.2% AcOH:ACN, Day 7): 3.83% | % Multimers according to HPLC-SEC method ([3]; solution (A) without EtOH: 1:1 0.2% AcOH:ACN, Day 8): 4.61% | % Multimers according to HPLC-SEC method ([3]; solution (A) without EtOH: 1:1 0.2% AcOH:ACN, Day 11): 6.47% | % Multimers according to HPLC-SEC method ([3]; solution (A) without EtOH: 1:1 0.2% AcOH:ACN, Day 12): 7.18% | % Multimers according to HPLC-SEC method ([3]; solution (B) with EtOH: 1:1:9.5 0.2% AcOH:ACN:EtOH, Day 0): 1.54% | % Multimers according to HPLC-SEC method ([3]; solution (B) with EtOH: 1:1:9.5 0.2% AcOH:ACN:EtOH, Day 1): 1.66% | % Multimers according to HPLC-SEC method ([3]; solution (B) with EtOH: 1:1:9.5 0.2% AcOH:ACN:EtOH, Day 2): 2.17% | % Multimers according to HPLC-SEC method ([3]; solution (B) with EtOH: 1:1:9.5 0.2% AcOH:ACN:EtOH, Day 5): 2.34% | % Multimers according to HPLC-SEC method ([3]; solution (B) with EtOH: 1:1:9.5 0.2% AcOH:ACN:EtOH, Day 6): 3.22% | % Multimers according to HPLC-SEC method ([3]; solution (B) with EtOH: 1:1:9.5 0.2% AcOH:ACN:EtOH, Day 7): 3.54% | % Multimers according to HPLC-SEC method ([3]; solution (B) with EtOH: 1:1:9.5 0.2% AcOH:ACN:EtOH, Day 8): 3.64% | % Multimers according to HPLC-SEC method ([3]; solution (B) with EtOH: 1:1:9.5 0.2% AcOH:ACN:EtOH, Day 11): 3.62% | % Multimers according to HPLC-SEC method ([3]; solution (B) with EtOH: 1:1:9.5 0.2% AcOH:ACN:EtOH, Day 12): 4.88%
